Measurements from patent publication US20260191835A1, “COMBINATIONS COMPRISING A MENIN-MLL INHIBITOR AND AT LEAST ONE OTHER THERAPEUTIC AGENT” (JANSSEN PHARMACEUTICA NV, priority 2022, published 2026).

Tested on: MV4-11 cells
Test: In vitro proliferation (Cell Titer Glo, 6 days) of Compound 51 in combination with gilteritinib, midostaurin or decitabine, MV4-11
Assay type: cell-based
Parameters: key to Synergy/antagonism call (maxR test), MV4-11 Cell Proliferation: synergy is indicated by “**”; antagonism is indicated by “*”; no asterisk: absence of any asterisk indicates an additive effect
Settings: for combination effect on proliferation (cytotoxicity): 6-day CellTiter-Glo matrix
Method: 3) In Vitro Proliferation—Menin-MLL Inhibitor in Combination with FLT3 Inhibitor (Gilteritinib or Midostaurin), DNA Intercalating Agent (Idarubicin) or Hypomethylating Agent (Decitabine)
The effect of Compound 51 in combination with gilteritinib, midostaurin, idarubicin or decitabine was determined in proliferation assays.
AML cell lines MOLM-13, OCI-AML3 and MV4-11 were purchased from DSMZ. MOLM-13 were grown in RPMI medium supplemented with 10% Fetal Bovine Serum (FBS) and 1% penicillin/streptomycin. MV4-11 cells were grown in IMDM medium supplemented with 10% FBS and 1% penicillin/streptomycin. OCI-AML3 cells were cultured in 80-90% alpha-MEM (with or without ribo- and deoxyribonucleosides)+10-20% FBS. All cell lines were cultured at 37° C. in 5% CO2 atmosphere.
AML cell lines (10-20×10^3 cells/well) were seeded in 96-well plates and grown for 6 days in serum (10%)-containing medium in the presence or absence of inhibitors at the indicated concentrations. Proliferation was analyzed by means of a Cell Titer Glo assay using the […] (Promega, Madison, WI, USA), according to the manufacturer's instructions. Data are mean with standard deviation from two to four independent experiments in technical triplicates.
R-based Biochemically Intuitive Generalized Loewe (BIGL) model implemented with a highest single agent (HSA) null model. Specifically, the BIGL methodology was applied to calculate drug-drug interactions (Van der Borght, K., Tourny, A., Bagdziunas, R. et al. BIGL: Biochemically Intuitive Generalized Loewe null model for prediction of the expected combined effect compatible with partial agonism and antagonism. Sci Rep 7, 17935 (2017); Thas, O., Tourny, A., Verbist, B., Hawinkel, S., Nazarov, M., Mutambanengwe, K., & Bijnens, L. Statistical detection of synergy: New methods and a comparative study. Pharmaceutical Statistics (2021)).
Synergy matrix results of the BIGL analysis of the cell line data with HSA as mean model calculated on the basis of the cellular metabolic activity using Cell Titer-Glo assay. Bootstrap confidence intervals are indicated. Effect sizes and their confidence intervals are shown. […] No significant average effect if zero is included in the interval.

[1] = Compound 51 0.1 μm + Decitabine 0.15 μM
[2] = Compound 51 0.1 μm + Decitabine 1.5 μM

CC(=O)N1CCC(CN2CC[C@@H](Cc3cn(-c4ccc(F)cc4C(=O)N(C)C(C)C)c4cncc(C)c34)C2)CC1 [Compound 51]
−0.11: Effect size (BIGL, HSA null model), MV4-11 Cell Proliferation [2]
−0.04: Effect size (BIGL, HSA null model), MV4-11 Cell Proliferation (Compound 51 0.05 μm + Midostaurin 0.1 μM) | Effect size (BIGL, HSA null model), MV4-11 Cell Proliferation (Compound 51 0.1 μm + Decitabine 0.035 μM) | Effect size (BIGL, HSA null model), MV4-11 Cell Proliferation (Compound 51 0.1 μm + Midostaurin 0.1 μM)
−0.01: Effect size (BIGL, HSA null model), MV4-11 Cell Proliferation (Compound 51 0.5 μm + Decitabine 0.035 μM) | Effect size (BIGL, HSA null model), MV4-11 Cell Proliferation (Compound 51 1 μm + Decitabine 0.035 μM)
synergistic effect: combination effect on proliferation at low doses of gilteritinib (in combination with gilteritinib 10 nM, MV4-11)
**: Synergy/antagonism call (maxR test), MV4-11 Cell Proliferation [1] | Synergy/antagonism call (maxR test), MV4-11 Cell Proliferation [2]
synergistically cytotoxic: combination effect on proliferation (cytotoxicity) (in combination with decitabine, MV4-11)
not antagonistically cytotoxic: combination effect on proliferation (cytotoxicity) (in combination with gilteritinib, MV4-11) | combination effect on proliferation (cytotoxicity) (in combination with midostaurin, MV4-11)
−0.03: Effect size (BIGL, HSA null model), MV4-11 Cell Proliferation (Compound 51 0.1 μm + Gilteritinib 0.005 μM) | Effect size (BIGL, HSA null model), MV4-11 Cell Proliferation (Compound 51 0.1 μm + Midostaurin 0.0012 μM) | Effect size (BIGL, HSA null model), MV4-11 Cell Proliferation (Compound 51 0.5 μm + Gilteritinib 0.005 μM) | Effect size (BIGL, HSA null model), MV4-11 Cell Proliferation (Compound 51 1 μm + Decitabine 1.5 μM) | Effect size (BIGL, HSA null model), MV4-11 Cell Proliferation (Compound 51 1 μm + Decitabine 3 μM)
−0.07: Effect size (BIGL, HSA null model), MV4-11 Cell Proliferation (Compound 51 0.05 μm + Midostaurin 0.006 μM) | Effect size (BIGL, HSA null model), MV4-11 Cell Proliferation (Compound 51 0.1 μm + Gilteritinib 0.0005 μM)
0.02: Effect size (BIGL, HSA null model), MV4-11 Cell Proliferation (Compound 51 1 μm + Midostaurin 0.0012 μM)
0: Effect size (BIGL, HSA null model), MV4-11 Cell Proliferation (Compound 51 0.5 μm + Decitabine 0.0015 μM) | Effect size (BIGL, HSA null model), MV4-11 Cell Proliferation (Compound 51 1 μm + Decitabine 0.0015 μM) | Effect size (BIGL, HSA null model), MV4-11 Cell Proliferation (Compound 51 1 μm + Midostaurin 0.025 μM) | Effect size (BIGL, HSA null model), MV4-11 Cell Proliferation (Compound 51 1 μm + Midostaurin 0.05 μM) | Effect size (BIGL, HSA null model), MV4-11 Cell Proliferation (Compound 51 1 μm + Midostaurin 0.1 μM)
−0.13: Effect size (BIGL, HSA null model), MV4-11 Cell Proliferation (Compound 51 0.05 μm + Midostaurin 0.05 μM)
0.03: Effect size (BIGL, HSA null model), MV4-11 Cell Proliferation (Compound 51 0.05 μm + Midostaurin 0.5 μM) | Effect size (BIGL, HSA null model), MV4-11 Cell Proliferation (Compound 51 0.1 μm + Midostaurin 0.5 μM) | Effect size (BIGL, HSA null model), MV4-11 Cell Proliferation (Compound 51 1 μm + Midostaurin 0.5 μM)
−0.06: Effect size (BIGL, HSA null model), MV4-11 Cell Proliferation (Compound 51 0.1 μm + Decitabine 3 μM) | Effect size (BIGL, HSA null model), MV4-11 Cell Proliferation (Compound 51 0.1 μm + Midostaurin 0.006 μM)
−0.02: Effect size (BIGL, HSA null model), MV4-11 Cell Proliferation (Compound 51 0.05 μm + Gilteritinib 0.3 μM) | Effect size (BIGL, HSA null model), MV4-11 Cell Proliferation (Compound 51 0.05 μm + Gilteritinib 1 μM) | Effect size (BIGL, HSA null model), MV4-11 Cell Proliferation (Compound 51 0.05 μm + Midostaurin 0.0012 μM) | Effect size (BIGL, HSA null model), MV4-11 Cell Proliferation (Compound 51 0.1 μm + Gilteritinib 0.01 μM) | Effect size (BIGL, HSA null model), MV4-11 Cell Proliferation (Compound 51 0.1 μm + Gilteritinib 0.05 μM) | Effect size (BIGL, HSA null model), MV4-11 Cell Proliferation (Compound 51 0.1 μm + Gilteritinib 0.3 μM) | Effect size (BIGL, HSA null model), MV4-11 Cell Proliferation (Compound 51 0.1 μm + Gilteritinib 1 μM) | Effect size (BIGL, HSA null model), MV4-11 Cell Proliferation (Compound 51 0.5 μm + Decitabine 0.15 μM) | Effect size (BIGL, HSA null model), MV4-11 Cell Proliferation (Compound 51 0.5 μm + Gilteritinib 0.0005 μM) | Effect size (BIGL, HSA null model), MV4-11 Cell Proliferation (Compound 51 0.5 μm + Gilteritinib 0.01 μM) | Effect size (BIGL, HSA null model), MV4-11 Cell Proliferation (Compound 51 0.5 μm + Gilteritinib 0.05 μM) | Effect size (BIGL, HSA null model), MV4-11 Cell Proliferation (Compound 51 0.5 μm + Gilteritinib 0.3 μM) | Effect size (BIGL, HSA null model), MV4-11 Cell Proliferation (Compound 51 0.5 μm + Gilteritinib 1 μM) | Effect size (BIGL, HSA null model), MV4-11 Cell Proliferation (Compound 51 1 μm + Decitabine 0.15 μM) | Effect size (BIGL, HSA null model), MV4-11 Cell Proliferation (Compound 51 1 μm + Gilteritinib 0.0005 μM) | Effect size (BIGL, HSA null model), MV4-11 Cell Proliferation (Compound 51 1 μm + Gilteritinib 0.005 μM) | Effect size (BIGL, HSA null model), MV4-11 Cell Proliferation (Compound 51 1 μm + Gilteritinib 0.01 μM) | Effect size (BIGL, HSA null model), MV4-11 Cell Proliferation (Compound 51 1 μm + Gilteritinib 0.05 μM) | Effect size (BIGL, HSA null model), MV4-11 Cell Proliferation (Compound 51 1 μm + Gilteritinib 0.3 μM) | Effect size (BIGL, HSA null model), MV4-11 Cell Proliferation (Compound 51 1 μm + Gilteritinib 1 μM)
−0.14: Effect size (BIGL, HSA null model), MV4-11 Cell Proliferation (Compound 51 0.05 μm + Midostaurin 0.025 μM)
−0.09: Effect size (BIGL, HSA null model), MV4-11 Cell Proliferation [1] | Effect size (BIGL, HSA null model), MV4-11 Cell Proliferation (Compound 51 0.1 μm + Midostaurin 0.05 μM)
−0.08: Effect size (BIGL, HSA null model), MV4-11 Cell Proliferation (Compound 51 0.1 μm + Midostaurin 0.025 μM)
0.01: Effect size (BIGL, HSA null model), MV4-11 Cell Proliferation (Compound 51 0.1 μm + Decitabine 0.0015 μM) | Effect size (BIGL, HSA null model), MV4-11 Cell Proliferation (Compound 51 1 μm + Midostaurin 0.006 μM)
